The target in one assay is TRPV1 (Homo sapiens, UniProt Q8NER1). Nature of the assay: TRPV1 channel antagonism, functional assay. The assay is classed as cell-based. Particulars: 150 μM.
The target in a further assay is T1, 5-lipoxygenase (5-LO) (Homo sapiens, UniProt P09917).
T1 sequence (P09917 1-674): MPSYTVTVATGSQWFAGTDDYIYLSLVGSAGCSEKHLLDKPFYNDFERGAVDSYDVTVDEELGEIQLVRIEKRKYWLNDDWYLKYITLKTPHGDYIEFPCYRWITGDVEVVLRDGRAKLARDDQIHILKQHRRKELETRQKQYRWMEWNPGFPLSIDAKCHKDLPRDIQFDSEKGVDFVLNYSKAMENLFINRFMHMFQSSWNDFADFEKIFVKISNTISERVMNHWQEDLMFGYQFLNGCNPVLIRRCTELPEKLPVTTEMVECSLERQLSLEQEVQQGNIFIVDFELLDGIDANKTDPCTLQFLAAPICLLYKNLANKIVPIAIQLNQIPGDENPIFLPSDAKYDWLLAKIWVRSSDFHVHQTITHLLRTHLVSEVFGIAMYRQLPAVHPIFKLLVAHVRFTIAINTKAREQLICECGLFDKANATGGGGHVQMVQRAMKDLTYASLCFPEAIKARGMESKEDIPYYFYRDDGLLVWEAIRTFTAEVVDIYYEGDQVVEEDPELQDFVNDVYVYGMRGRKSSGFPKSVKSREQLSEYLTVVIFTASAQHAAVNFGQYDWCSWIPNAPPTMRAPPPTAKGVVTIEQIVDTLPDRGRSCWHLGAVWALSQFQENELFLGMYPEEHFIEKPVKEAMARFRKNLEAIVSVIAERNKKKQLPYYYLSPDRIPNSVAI
Put plainly: 5-LO inhibition assay, Method A (Cerep), cell-free functional. In kind it is biochemical. On the procedure: Method A: 5-Lipoxygenase (5-LO), 12-lipoxygenase (12-LO) and 15-lipoxygenase-2 (15-LO-2) inhibition assays were performed at Cerep, SA (Celle l'Evescault, France) on a fee-for-service basis (Ref 0772^36, 0883^37 and 0893^38, respectively), as described in Table 1.

The target in the next assay is T2, purified human 5-LO (Homo sapiens, UniProt P09917).
T2 construct: purchased Abcam ab114310
T2 sequence (P09917 1-674): T1 sequence (P09917 1-674)
Nature of the assay: Intrinsic tryptophan fluorescence. In kind it is binding. Particulars: 1 mM dithiothreitol, increasing concentrations. On the procedure:
5-Lipoxygenase (Cat No. ab114310, Abcam) was concentrated to 0.5 μM in buffer (50 mM Tris-HCl, pH 8.0, 5 mM CaCl2). […] The final DMSO concentration was kept under 0.1%. Fluorescent measurements were performed using a 1 cm pathlength quartz cuvette. Spectra were collected in an Edinburgh Instruments FLS920 Series Fluorescence Spectrophotometer at 25° C. with fluorescence excitation and scanning emission set to 295 nm and 310 to 450 nm, respectively. All assays were carried out in triplicate.

A further assay concerns HL-60. Put plainly: Cell viability, AML model HL-60 (FIG. 9a). The assay is classed as cell-based. The following applies: Homo sapiens, n=3.
The next assay addresses EP2 (Homo sapiens, UniProt P43116). Nature of the assay: Prostanoid EP2 receptor antagonism, functional assay. The assay is classed as cell-based. The following applies: 150 μM.
For assay [1], the target named is T3, 5-LO (Homo sapiens, UniProt P09917).
T3 sequence (P09917 1-674): T1 sequence (P09917 1-674)
Put plainly: 5-LO product formation in intact human neutrophils. Set-up: endogenous in cells; host or cells: neutrophils isolated from peripheral blood of healthy adult volunteers; intact or sonicated homogenates. The assay is classed as cell-based. On the procedure:
Peripheral blood (University Hospital Jena, Germany) was withdrawn from healthy adult volunteers with consent that had not taken any anti-inflammatory drugs during the last 10 days, by venipuncture in heparinized tubes (16 IE heparin/mL blood). The blood was centrifuged at 4000 g for 20 min at 20° C. for preparation of leukocyte concentrates. Leukocyte concentrates were then subjected to dextran sedimentation and centrifugation on lymphocyte separation medium (LSM 1077, PAA, Colbe, Germany). Contaminating erythrocytes of pelleted neutrophils were removed by hypotonic Iysis. […]
Method B. For determination of 5-LO products in intact neutrophils, the cells (5×10^6) were resuspended in 1 mL PGC buffer, preincubated for 15 min at 37° C. with β-lapachone or vehicle (0.1% DMSO), and incubated for 10 min at 37° C. with 2.5 μM Ca^2+-ionophore A23187 plus 20 μM AA. […] 5-LO products (LTB4, tr-LTB4 isomers, and 5-HETE), were analyzed by RP-HPLC and quantities calculated on the basis of the internal standard PGB1. Cysteinyl-LTs C4, D4 and E4 were not detected (amounts were below detection limit), and oxidation products of LTB4 were not determined.
Data are expressed as mean±S.E.M. IC50 values were calculated from averaged measurements at 6 different concentrations of the compound by nonlinear regression using GraphPad Prism software (San Diego, Calif.) one site binding competition. […]

Assay [2] concerns the target T3, 5-LO. Put plainly: Circular dichroism binding, protein melting curves. (In general: Circular dichroism is widely used to follow secondary structure.)
The target in assay [3] is Phosphodiesterase 5 (PDE5) (Homo sapiens, UniProt O76074). Put plainly: Phosphodiesterase 5 assay (Cerep). In kind it is biochemical. The following applies: 2 μM. On the procedure:
Phosphodiesterase 5 (PDE5) assay was performed at Cerep, SA (Celle l'Evescault, France) on a fee-for-service basis (Ref 0204^39), as described in Table 2. [table]

For a further assay, the system named is 15-LO. Nature of the assay: 15-LO inhibition in intact human neutrophils. The assay is classed as cell-based. Particulars: without DTT. On the procedure:
Peripheral blood (University Hospital Jena, Germany) was withdrawn from healthy adult volunteers with consent that had not taken any anti-inflammatory drugs during the last 10 days, by venipuncture in heparinized tubes (16 IE heparin/mL blood). The blood was centrifuged at 4000 g for 20 min at 20° C. for preparation of leukocyte concentrates. Leukocyte concentrates were then subjected to dextran sedimentation and centrifugation on lymphocyte separation medium (LSM 1077, PAA, Colbe, Germany). Contaminating erythrocytes of pelleted neutrophils were removed by hypotonic Iysis. […] Method B. […] Cysteinyl-LTs C4, D4 and E4 were not detected (amounts were below detection limit), and oxidation products of LTB4 were not determined.

This note sets out measurements from patent publication US20210161855A1, “5-LIPOXYGENASE ANTAGONISTS” (INSTITUTO DE MEDICINA MOLECULAR JOÃO LOBO ANTUNES, priority 2017, published 2021).

Read-outs that look alike come from different tables or passages of the source.

Chain of TRPV1 (Q8NER1 whole entry, species assumed): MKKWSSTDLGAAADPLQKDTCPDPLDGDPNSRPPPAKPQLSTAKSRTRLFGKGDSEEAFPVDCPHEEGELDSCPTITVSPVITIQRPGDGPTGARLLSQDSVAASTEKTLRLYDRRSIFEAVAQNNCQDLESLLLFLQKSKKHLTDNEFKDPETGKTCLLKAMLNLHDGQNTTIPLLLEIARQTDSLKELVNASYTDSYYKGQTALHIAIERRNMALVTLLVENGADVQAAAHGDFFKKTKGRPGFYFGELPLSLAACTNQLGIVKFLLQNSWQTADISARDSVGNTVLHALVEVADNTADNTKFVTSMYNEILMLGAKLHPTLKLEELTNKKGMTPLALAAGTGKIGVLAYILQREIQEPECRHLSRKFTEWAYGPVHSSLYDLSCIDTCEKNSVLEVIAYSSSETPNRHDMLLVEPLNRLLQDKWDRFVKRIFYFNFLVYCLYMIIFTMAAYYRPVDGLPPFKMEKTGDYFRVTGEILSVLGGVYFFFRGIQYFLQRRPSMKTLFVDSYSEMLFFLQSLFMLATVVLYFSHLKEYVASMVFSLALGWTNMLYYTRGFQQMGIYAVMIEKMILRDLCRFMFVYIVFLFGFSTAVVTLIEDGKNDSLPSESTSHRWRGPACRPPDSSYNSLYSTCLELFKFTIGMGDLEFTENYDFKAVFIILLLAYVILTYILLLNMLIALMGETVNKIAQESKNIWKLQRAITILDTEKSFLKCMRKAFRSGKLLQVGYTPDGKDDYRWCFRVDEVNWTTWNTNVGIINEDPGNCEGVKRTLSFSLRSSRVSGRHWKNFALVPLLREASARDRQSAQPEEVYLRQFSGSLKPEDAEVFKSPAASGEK
Chain of EP2 (P43116 whole entry): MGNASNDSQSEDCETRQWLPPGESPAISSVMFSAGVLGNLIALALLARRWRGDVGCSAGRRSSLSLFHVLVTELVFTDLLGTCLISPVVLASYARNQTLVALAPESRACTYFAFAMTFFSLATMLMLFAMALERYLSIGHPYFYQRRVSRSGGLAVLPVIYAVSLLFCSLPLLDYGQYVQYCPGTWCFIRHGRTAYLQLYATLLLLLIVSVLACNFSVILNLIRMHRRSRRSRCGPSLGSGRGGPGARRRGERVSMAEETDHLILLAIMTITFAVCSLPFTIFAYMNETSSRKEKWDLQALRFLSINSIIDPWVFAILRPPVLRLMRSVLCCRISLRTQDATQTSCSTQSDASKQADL

For `CC1(C)CCC2=C(O1)c1ccccc1C(=O)C2=O` [Compound 1, 3,4-dihydro-2,2-dimethyl-2H-naphtho[1,2-b]pyran-5,6-dione], the TRPV1 antagonist effect at TRPV1 is 63%. Also, on 5-lipoxygenase (5-LO) (from IC50 2.1 μM), the “Ligand efficiency (LE), 5-LO” value was determined as 0.44. In addition, the inhibition at 150 µM on 5-lipoxygenase (5-LO) (read-out: 5-LO inhibition at the assayed concentration) amounted to 96%. For the same compound, the IC50 against 5-lipoxygenase (5-LO) (reducing conditions) is 2100 nM; in the assay on HL-60 it was 2700 nM; on 5-LO [1] (1 mM DTT, n=4, read-out: IC50, 5-LO activity in intact human neutrophils supplemented with DTT), 420 nM; at 5-LO [1] (without DTT, A23187 plus arachidonic acid, n=3, read-out: IC50 (5-LO), intact human neutrophils), 8600 nM; in the assay with 15-LO, over 30000 nM. Moreover, the Tryptophan fluorescence shift result at purified human 5-LO was “blue shift”. For the same compound, on EP2, the EP2 antagonist effect came out at 60%. Also, binding on 5-LO [2] was characterised by a dissociation constant (Kd) of 5700 nM. Besides, the PDE5 screening outcome in assay [3] is “inactivity”.

What is called IC50 is the concentration at which inhibition is half-maximal. In general, Kd refers to the constant that tells how readily two partners part at equilibrium. Low readings indicate tighter binding, high ones weaker binding.
